Experimental data reported in article PMC9983021, “Novel GluN2B-Selective NMDA Receptor Negative Allosteric Modulator Possesses Intrinsic Analgesic Properties and Enhances Analgesia of Morphine in a Rodent Tail Flick Pain Model” (ACS Chemical Neuroscience, 2023).

Key:
[1] = biological target: diheteromeric rat GluN1/GluN2Bc1/GluN2Bc2 (r2Bc1/r2Bc2) (Rattus norvegicus, UniProt P35439+Q00959+Q00960, A876H/F846L/G856D/H848F/K857R/M851T/M860L/Q845K/V861L); experiment: Concentration-inhibition curves, oocytes, C1/C2-tagged NMDARs; type: cell-based
5-HT1A = biological target: T1, 5-HT1A (Homo sapiens, UniProt P08908); experiment: Radioligand binding assay (NIMH PDSP); conditions: primary screen, quadruplicate
T1 construct: purchased NIMH Psychoactive Drug Screening Program (PDSP)
Protocol: (§1) Conventional competition and saturation radioligand binding assays were used to determine the affinities of reference standards and EU93-108. Experiments were carried out by the NIMH Psychoactive Drug Screening Program (PDSP) and were performed as previously described.[123]
(§2) The detailed experimental protocols for the radioligand assays are available on the NIMH PDSP website at https://pdsp.unc.edu/pdspweb/content/UNC-CH%20Protocol%20Book.pdf.
(§3) Receptor Mean % Receptor Mean % Receptor Mean %
(§4) Inhibition Inhibition Inhibition
(§5) Supplemental Table S4. Off-Target Actions of EU93-108: Primary GPCR Screen. Cloned human molecular targets were individually expressed and submitted to molecular target-based screening with initial screens performed at a final concentration of 10 µM in quadruplicate. Complete protocols for the assays have been previously published (Besnard J et al. 2012). Where inhibition greater than 50% was measured, secondary screens were performed wherein Ki values were calculated (see Table 4).

5-HT1B = biological target: T2, 5-HT1B (Homo sapiens, UniProt P28222); experiment: Radioligand binding assay (NIMH PDSP); conditions: primary screen, quadruplicate
T2 construct: purchased NIMH Psychoactive Drug Screening Program (PDSP)
Protocol: as §1, §2, §3, §4, §5

5-HT1D = biological target: T3, 5-HT1D (Homo sapiens, UniProt P28221); experiment: Radioligand binding assay (NIMH PDSP); conditions: primary screen, quadruplicate
T3 construct: purchased NIMH Psychoactive Drug Screening Program (PDSP)
Protocol: as §1, §2, §3, §4, §5

5-HT1E = biological target: T4, 5-HT1E (Homo sapiens, UniProt P28566); experiment: Radioligand binding assay (NIMH PDSP); conditions: primary screen, quadruplicate
T4 construct: purchased NIMH Psychoactive Drug Screening Program (PDSP)
Protocol: as §1, §2, §3, §4, §5

5-HT3 = biological target: T5, 5-HT3 (Homo sapiens, UniProt P46098); experiment: Radioligand binding assay (NIMH PDSP); conditions: primary screen, quadruplicate
T5 construct: purchased NIMH Psychoactive Drug Screening Program (PDSP)
Protocol: as §1, §2, §3, §4, §5

5-HT5A = biological target: T6, 5-HT5A (Homo sapiens, UniProt P47898); experiment: Radioligand binding assay (NIMH PDSP); conditions: primary screen, quadruplicate
T6 construct: purchased NIMH Psychoactive Drug Screening Program (PDSP)
Protocol: as §1, §2, §3, §4, §5

5-HT6 = biological target: T7, 5-HT6 (Homo sapiens, UniProt P50406); experiment: Radioligand binding assay (NIMH PDSP); conditions: primary screen, quadruplicate
T7 construct: purchased NIMH Psychoactive Drug Screening Program (PDSP)
Protocol: as §1, §2, §3, §4, §5

5-HT7A = biological target: T8, 5-HT7A (Homo sapiens, UniProt P34969); experiment: Radioligand binding assay (NIMH PDSP); conditions: primary screen, quadruplicate
T8 construct: purchased NIMH Psychoactive Drug Screening Program (PDSP)
Protocol: as §1, §2, §3, §4, §5

Alpha1B = biological target: T9, Alpha1B (Homo sapiens, UniProt P35368); experiment: Radioligand binding assay (NIMH PDSP); conditions: primary screen, quadruplicate
T9 construct: purchased NIMH Psychoactive Drug Screening Program (PDSP)
Protocol: as §1, §2, §3, §4, §5

BZP Rat Brain Site = experiment: Radioligand binding assay (NIMH PDSP); conditions: primary screen, 10 µM, quadruplicate
Protocol: as §1, §2, §3, §4, §5

Beta1 = biological target: T10, Beta1 (Homo sapiens, UniProt P08588); experiment: Radioligand binding assay (NIMH PDSP); conditions: primary screen, quadruplicate
T10 construct: purchased NIMH Psychoactive Drug Screening Program (PDSP)
Protocol: as §1, §2, §3, §4, §5

Beta2 = biological target: T11, Beta2 (Homo sapiens, UniProt P07550); experiment: Radioligand binding assay (NIMH PDSP); conditions: primary screen, quadruplicate
T11 construct: purchased NIMH Psychoactive Drug Screening Program (PDSP)
Protocol: as §1, §2, §3, §4, §5

Beta3 = biological target: T12, Beta3 (Homo sapiens, UniProt P13945); experiment: Radioligand binding assay (NIMH PDSP); conditions: primary screen, quadruplicate
T12 construct: purchased NIMH Psychoactive Drug Screening Program (PDSP)
Protocol: as §1, §2, §3, §4, §5

D1 = biological target: T13, D1 (Homo sapiens, UniProt P21728); experiment: Radioligand binding assay (NIMH PDSP); conditions: primary screen, quadruplicate
T13 construct: purchased NIMH Psychoactive Drug Screening Program (PDSP)
Protocol: as §1, §2, §3, §4, §5

D2 = biological target: T14, D2 (Homo sapiens, UniProt P14416); experiment: Radioligand binding assay (NIMH PDSP); conditions: primary screen, quadruplicate
T14 construct: purchased NIMH Psychoactive Drug Screening Program (PDSP)
Protocol: as §1, §2, §3, §4, §5

D4 = biological target: T15, D4 (Homo sapiens, UniProt P21917); experiment: Radioligand binding assay (NIMH PDSP); conditions: primary screen, quadruplicate
T15 construct: purchased NIMH Psychoactive Drug Screening Program (PDSP)
Protocol: as §1, §2, §3, §4, §5

D5 = biological target: T16, D5 (Homo sapiens, UniProt P21918); experiment: Radioligand binding assay (NIMH PDSP); conditions: primary screen, quadruplicate
T16 construct: purchased NIMH Psychoactive Drug Screening Program (PDSP)
Protocol: as §1, §2, §3, §4, §5

DAT = biological target: T17, DAT (Homo sapiens, UniProt Q01959); experiment: Radioligand binding assay (NIMH PDSP); conditions: primary screen, quadruplicate
T17 construct: purchased NIMH Psychoactive Drug Screening Program (PDSP)
Protocol: as §1, §2, §3, §4, §5

DOR = biological target: T18, DOR (Homo sapiens, UniProt P41143); experiment: Radioligand binding assay (NIMH PDSP); conditions: primary screen, quadruplicate
T18 construct: purchased NIMH Psychoactive Drug Screening Program (PDSP)
Protocol: as §1, §2, §3, §4, §5

H2 = biological target: T19, H2 (Homo sapiens, UniProt P25021); experiment: Radioligand binding assay (NIMH PDSP); conditions: primary screen, quadruplicate
T19 construct: purchased NIMH Psychoactive Drug Screening Program (PDSP)
Protocol: as §1, §2, §3, §4, §5

H3 = biological target: T20, H3 (Homo sapiens, UniProt Q9Y5N1); experiment: Radioligand binding assay (NIMH PDSP); conditions: primary screen, quadruplicate
T20 construct: purchased NIMH Psychoactive Drug Screening Program (PDSP)
Protocol: as §1, §2, §3, §4, §5

H4 = biological target: T21, H4 (Homo sapiens, UniProt Q9H3N8); experiment: Radioligand binding assay (NIMH PDSP); conditions: primary screen, quadruplicate
T21 construct: purchased NIMH Psychoactive Drug Screening Program (PDSP)
Protocol: as §1, §2, §3, §4, §5

KOR = biological target: T22, KOR (Homo sapiens, UniProt P41145); experiment: Radioligand binding assay (NIMH PDSP); conditions: primary screen, quadruplicate
T22 construct: purchased NIMH Psychoactive Drug Screening Program (PDSP)
Protocol: as §1, §2, §3, §4, §5

M1 = biological target: T23, M1 (Homo sapiens, UniProt P11229); experiment: Radioligand binding assay (NIMH PDSP); conditions: primary screen, quadruplicate
T23 construct: purchased NIMH Psychoactive Drug Screening Program (PDSP)
Protocol: as §1, §2, §3, §4, §5

M2 = biological target: T24, M2 (Homo sapiens, UniProt P08172); experiment: Radioligand binding assay (NIMH PDSP); conditions: primary screen, quadruplicate
T24 construct: purchased NIMH Psychoactive Drug Screening Program (PDSP)
Protocol: as §1, §2, §3, §4, §5

M3 = biological target: T25, M3 (Homo sapiens, UniProt P20309); experiment: Radioligand binding assay (NIMH PDSP); conditions: primary screen, quadruplicate
T25 construct: purchased NIMH Psychoactive Drug Screening Program (PDSP)
Protocol: as §1, §2, §3, §4, §5

M4 = biological target: T26, M4 (Homo sapiens, UniProt P08173); experiment: Radioligand binding assay (NIMH PDSP); conditions: primary screen, quadruplicate
T26 construct: purchased NIMH Psychoactive Drug Screening Program (PDSP)
Protocol: as §1, §2, §3, §4, §5

M5 = biological target: T27, M5 (Homo sapiens, UniProt P08912); experiment: Radioligand binding assay (NIMH PDSP); conditions: primary screen, quadruplicate
T27 construct: purchased NIMH Psychoactive Drug Screening Program (PDSP)
Protocol: as §1, §2, §3, §4, §5

MOR = biological target: T28, MOR (Homo sapiens, UniProt P35372); experiment: Radioligand binding assay (NIMH PDSP); conditions: primary screen, quadruplicate
T28 construct: purchased NIMH Psychoactive Drug Screening Program (PDSP)
Protocol: as §1, §2, §3, §4, §5

NET = biological target: T29, NET (Homo sapiens, UniProt P23975); experiment: Radioligand binding assay (NIMH PDSP); conditions: primary screen, quadruplicate
T29 construct: purchased NIMH Psychoactive Drug Screening Program (PDSP)
Protocol: as §1, §2, §3, §4, §5

SERT = biological target: T30, SERT (Homo sapiens, UniProt P31645); experiment: Radioligand binding assay (NIMH PDSP); conditions: primary screen, quadruplicate
T30 construct: purchased NIMH Psychoactive Drug Screening Program (PDSP)
Protocol: as §1, §2, §3, §4, §5

Sigma2 = biological target: T31, Sigma2 (Homo sapiens, UniProt Q5BJF2); experiment: Radioligand binding assay (NIMH PDSP); conditions: primary screen, quadruplicate
T31 construct: purchased NIMH Psychoactive Drug Screening Program (PDSP)
Protocol: as §1, §2, §3, §4, §5

Chain of diheteromeric rat GluN1/GluN2Bc1/GluN2Bc2 (r2Bc1/r2Bc2) (Q00960+Q00959 fused with the stated changes, other chains not shown): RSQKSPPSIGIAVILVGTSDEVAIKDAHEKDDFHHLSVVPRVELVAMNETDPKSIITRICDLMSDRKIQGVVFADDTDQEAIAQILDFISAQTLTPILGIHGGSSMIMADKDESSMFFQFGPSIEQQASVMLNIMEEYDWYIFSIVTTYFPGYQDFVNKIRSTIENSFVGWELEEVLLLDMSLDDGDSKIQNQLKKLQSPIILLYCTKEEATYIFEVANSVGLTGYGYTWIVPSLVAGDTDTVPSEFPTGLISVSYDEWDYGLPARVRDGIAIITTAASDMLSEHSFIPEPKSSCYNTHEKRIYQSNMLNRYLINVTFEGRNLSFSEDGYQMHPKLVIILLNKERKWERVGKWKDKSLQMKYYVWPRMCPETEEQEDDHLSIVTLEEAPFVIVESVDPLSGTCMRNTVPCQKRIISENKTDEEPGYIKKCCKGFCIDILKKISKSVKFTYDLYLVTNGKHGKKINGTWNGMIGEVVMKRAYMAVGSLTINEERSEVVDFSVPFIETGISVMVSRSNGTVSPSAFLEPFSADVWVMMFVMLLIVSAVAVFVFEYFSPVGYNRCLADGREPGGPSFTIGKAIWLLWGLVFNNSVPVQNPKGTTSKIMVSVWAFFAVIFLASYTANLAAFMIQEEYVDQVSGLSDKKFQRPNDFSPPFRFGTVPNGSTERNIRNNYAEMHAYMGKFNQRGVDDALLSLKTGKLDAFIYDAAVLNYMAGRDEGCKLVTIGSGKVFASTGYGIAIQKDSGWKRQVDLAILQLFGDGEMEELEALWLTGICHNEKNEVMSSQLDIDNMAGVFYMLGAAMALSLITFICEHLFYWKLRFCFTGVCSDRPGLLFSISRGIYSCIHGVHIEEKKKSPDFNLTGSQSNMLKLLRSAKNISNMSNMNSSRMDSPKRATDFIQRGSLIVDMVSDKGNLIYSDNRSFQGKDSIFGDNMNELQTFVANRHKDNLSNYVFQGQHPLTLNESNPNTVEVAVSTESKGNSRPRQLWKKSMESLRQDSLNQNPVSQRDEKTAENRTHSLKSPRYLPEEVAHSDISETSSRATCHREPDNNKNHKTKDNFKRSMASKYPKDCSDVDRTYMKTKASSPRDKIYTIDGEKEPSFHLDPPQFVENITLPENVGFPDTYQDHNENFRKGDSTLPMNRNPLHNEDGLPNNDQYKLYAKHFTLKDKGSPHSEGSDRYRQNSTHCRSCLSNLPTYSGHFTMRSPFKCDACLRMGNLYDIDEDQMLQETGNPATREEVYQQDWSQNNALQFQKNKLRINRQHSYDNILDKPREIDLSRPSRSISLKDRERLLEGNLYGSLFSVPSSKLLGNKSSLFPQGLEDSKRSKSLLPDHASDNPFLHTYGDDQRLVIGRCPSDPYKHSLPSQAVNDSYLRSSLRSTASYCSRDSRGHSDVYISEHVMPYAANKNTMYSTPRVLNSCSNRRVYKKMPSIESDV
Chain of diheteromeric rat GluN1/GluN2Bc1/GluN2Bc2 (r2Bc1/r2Bc2) (Q00960+Q00959 fused with the stated changes, other chains not shown): as above
T11 sequence (P07550 whole entry): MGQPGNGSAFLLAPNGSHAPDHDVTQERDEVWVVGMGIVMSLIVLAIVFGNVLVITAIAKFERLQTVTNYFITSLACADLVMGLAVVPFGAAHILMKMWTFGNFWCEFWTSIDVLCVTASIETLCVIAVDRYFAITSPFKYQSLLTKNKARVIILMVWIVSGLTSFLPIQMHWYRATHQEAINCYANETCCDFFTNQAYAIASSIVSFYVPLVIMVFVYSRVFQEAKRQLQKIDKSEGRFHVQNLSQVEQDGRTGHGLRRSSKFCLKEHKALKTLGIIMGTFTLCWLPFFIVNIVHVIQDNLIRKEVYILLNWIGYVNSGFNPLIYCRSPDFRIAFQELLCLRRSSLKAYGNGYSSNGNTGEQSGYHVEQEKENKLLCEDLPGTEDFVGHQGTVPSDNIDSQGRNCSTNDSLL
T6 sequence (P47898 whole entry): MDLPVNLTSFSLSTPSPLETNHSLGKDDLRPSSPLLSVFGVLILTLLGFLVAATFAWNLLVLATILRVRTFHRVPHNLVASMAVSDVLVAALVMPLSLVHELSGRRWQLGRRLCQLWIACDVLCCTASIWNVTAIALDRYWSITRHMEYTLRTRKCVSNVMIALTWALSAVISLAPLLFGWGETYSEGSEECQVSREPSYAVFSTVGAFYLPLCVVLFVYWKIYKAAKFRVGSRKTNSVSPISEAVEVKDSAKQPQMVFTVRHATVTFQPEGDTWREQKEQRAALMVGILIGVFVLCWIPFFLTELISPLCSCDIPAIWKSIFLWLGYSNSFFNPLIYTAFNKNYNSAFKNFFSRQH
T22 sequence (P41145 whole entry): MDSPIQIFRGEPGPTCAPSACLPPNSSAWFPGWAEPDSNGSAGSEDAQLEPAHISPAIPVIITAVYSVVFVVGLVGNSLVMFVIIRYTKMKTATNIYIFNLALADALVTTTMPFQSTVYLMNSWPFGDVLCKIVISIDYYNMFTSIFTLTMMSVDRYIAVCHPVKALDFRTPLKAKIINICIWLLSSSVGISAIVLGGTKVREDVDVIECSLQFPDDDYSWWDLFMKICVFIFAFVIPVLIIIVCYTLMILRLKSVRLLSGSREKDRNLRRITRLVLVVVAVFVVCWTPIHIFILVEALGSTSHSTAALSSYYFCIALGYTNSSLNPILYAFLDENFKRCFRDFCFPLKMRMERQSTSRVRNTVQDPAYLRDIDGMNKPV
T26 sequence (P08173 whole entry): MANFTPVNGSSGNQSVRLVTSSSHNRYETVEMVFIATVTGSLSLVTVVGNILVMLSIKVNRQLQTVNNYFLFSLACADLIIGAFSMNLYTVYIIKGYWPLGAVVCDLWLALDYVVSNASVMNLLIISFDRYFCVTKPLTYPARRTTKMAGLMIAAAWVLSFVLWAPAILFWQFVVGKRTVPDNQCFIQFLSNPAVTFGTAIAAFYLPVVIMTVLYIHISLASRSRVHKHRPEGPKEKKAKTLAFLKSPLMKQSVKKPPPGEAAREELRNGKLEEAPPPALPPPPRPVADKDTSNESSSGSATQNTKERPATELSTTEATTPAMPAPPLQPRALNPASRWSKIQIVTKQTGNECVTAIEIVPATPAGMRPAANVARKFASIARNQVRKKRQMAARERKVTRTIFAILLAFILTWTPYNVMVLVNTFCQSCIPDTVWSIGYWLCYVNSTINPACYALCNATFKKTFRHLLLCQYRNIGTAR
T24 sequence (P08172 whole entry): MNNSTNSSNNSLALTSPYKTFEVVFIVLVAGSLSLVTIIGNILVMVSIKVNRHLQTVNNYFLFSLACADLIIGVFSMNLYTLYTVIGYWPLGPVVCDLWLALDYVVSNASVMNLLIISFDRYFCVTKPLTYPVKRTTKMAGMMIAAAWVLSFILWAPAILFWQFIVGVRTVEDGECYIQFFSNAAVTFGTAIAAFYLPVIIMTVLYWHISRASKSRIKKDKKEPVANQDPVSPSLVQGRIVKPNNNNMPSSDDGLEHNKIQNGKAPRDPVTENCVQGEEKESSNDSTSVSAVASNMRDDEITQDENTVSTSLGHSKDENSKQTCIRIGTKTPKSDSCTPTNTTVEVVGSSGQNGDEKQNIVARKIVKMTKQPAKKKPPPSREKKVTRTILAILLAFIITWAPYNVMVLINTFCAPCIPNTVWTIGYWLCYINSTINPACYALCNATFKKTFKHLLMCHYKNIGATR

Compound: CS(=O)(=O)Nc1ccc(OC[C@@H](O)CN2CCN(c3ccc(F)c(F)c3)CC2)cc1 [EU93-108, (S)-N-(4-(3-(4-(3,4-Difluorophenyl)piperazin-1-yl)-2-hydroxypropoxy)phenyl)methanesulfonamide]
- residual current remaining at 10 μM EU93-108 ([1]; 10 μM, % of maximal response, n = 8): 10.6%
- IC50 ([1]; 100 μM glutamate and 100 μM glycine, −40 mV, pH 7.4, n = 8): 233 nM
- nH ([1]; Hill slope factor of the inhibition curve, Table S1): -1.06
- Ymin ([1]; residual response, Table S1, N = 8): 10.6
- inhibition at 10 µM (5-HT1A): 22.8%
- inhibition at 10 µM (5-HT1B): -7.29%
- inhibition at 10 µM (5-HT1D): 39.2%
- inhibition at 10 µM (5-HT1E): 1.68%
- inhibition at 10 µM (5-HT3): 0.87%
- inhibition at 10 µM (5-HT5A): 13%
- inhibition at 10 µM (5-HT6): 25.3%
- inhibition at 10 µM (5-HT7A): 55.9%
- inhibition at 10 µM (Alpha1B): 5.09%
- Mean % Inhibition (BZP Rat Brain Site): 14.68%
- inhibition at 10 µM (Beta1): 29.1%
- inhibition at 10 µM (Beta2): 13.7%
- inhibition at 10 µM (Beta3): -10.5%
- inhibition at 10 µM (D1): 24.7%
- inhibition at 10 µM (D2): 23.1%
- inhibition at 10 µM (D4): 11.4%
- inhibition at 10 µM (D5): 8.94%
- inhibition at 10 µM (DAT): -7.01%
- inhibition at 10 µM (DOR): -8.82%
- inhibition at 10 µM (H2): 13.7%
- inhibition at 10 µM (H3): 22.7%
- inhibition at 10 µM (H4): 2.12%
- inhibition at 10 µM (KOR): -3.1%
- inhibition at 10 µM (M1): -18.1%
- inhibition at 10 µM (M2): -23.1%
- inhibition at 10 µM (M3): 9.26%
- inhibition at 10 µM (M4): 51.4%
- inhibition at 10 µM (M5): -0.11%
- inhibition at 10 µM (MOR): 4.04%
- inhibition at 10 µM (NET): 12.5%
- inhibition at 10 µM (SERT): 15.1%
- inhibition at 10 µM (Sigma2): 47.2%
